Experiments:
BTSC#30p = experiment: Growth curves (CellTiter), BTSC#30p; format: cell-based; conditions: up to 200 μM
Protocol: BTSC#83 and BTSC#30p and their culture conditions have been described. For growth curves, suspension cultures were mechanically disaggregated and filtered through 37 µm filters (StemCell Technologies, Vancouver, Canada) in order to obtain bona fide single-cell suspension. […] Cell growth was assayed at the indicated time using the CellTiter Assay System (Promega). The growth conditions of 8505c anaplastic thyroid carcinoma cells and mouse Embryonic Fibroblasts (MEFs) knock-out for HMGA1, HMGA2, and HMGA1/A2 double mutant have been described previously[42],[64]. P values were calculated by using two-way ANOVA followed by Sidak’s multiple comparison test.

[1] = target: T1, bromodomain-containing protein 4 (BRD4) (Homo sapiens, UniProt O60885); experiment: BRD4 AlphaScreen counterscreen assay (H4 peptide binding to BRD4); conditions: counter screen, Fig. 3c
T1 construct: His-tagged BRD4-BD1 was purchased from BPS Bioscience (#31042); purchased BPS Bioscience 31042
Protocol: (§1) In this study, we also developed a LANCE time-resolved fluorescence energy transfer (TR-FRET) assay as a secondary assay for our screening. The His-tagged HMGA2 and biotinylated oligomer FL814 were linked to Europium-labeled anti-6 × His antibody and APC-labeled streptavidin, respectively. A series of DNA binding studies were performed to determine the optimal conditions for the secondary Assay (Fig. S2). After these experiments, 12.5 nM of FL814 and 62.5 nM of HMGA2 were chosen for the assay, which is the same for the primary assay. The assay tolerated up to 0.25% DMSO without any significant change in signal (Fig. S2c). For a counterscreen assay to exclude those compounds that nonspecifically bind to the protein surface, an AlphaScreen assay of H4 peptide binding to bromodomain-containing protein 4 (BRD4) was adopted (Fig. S2e). Since we are looking for compounds with anti-metastasis or anti-obesity activities, compounds with high levels of cytotoxicity are undesirable. […]
Using a Labcyte Echo 555 acoustic dispenser 5 nL of DMSO were added to columns 1–4 and 45–48 of a white 1536 well plate, while 5 nL of 2 mM compounds in DMSO were added to columns 5–44. […] After an overnight incubation at room temperature the plates were read on a Perkin Elmer Envision multimode plate reader in AlphaScreen mode.

[2] = test system: human epidermoid carcinoma cell line, A431; experiment: Cytotoxicity / cell viability assay (ATPlite); format: cell-based; conditions: human A-431 cells, 48 h
Protocol: as §1
A-431 cells were grown in media (DMEM + 10% FBS + 1 × Penicillin/Streptomycin + 2 mM L-glutamine) at 37 °C in a humidified incubator with 5% CO2 to 70% confluency. […] After 10 min the plates were read using a Perkin Elmer Viewlux multimode plate reader in luminescence mode.

HMGA2-DNA interactions = target: T2, HMGA2-DNA interactions (Mus musculus, UniProt P52927); experiment: Protein-DNA interaction ELISA (PDI-ELISA) assay; format: binding, mammalian; conditions: inhibition of HMGA2-DNA interactions, PDI-ELISA
T2 construct: made in house
T2 sequence (P52927 2-108 limits assumed): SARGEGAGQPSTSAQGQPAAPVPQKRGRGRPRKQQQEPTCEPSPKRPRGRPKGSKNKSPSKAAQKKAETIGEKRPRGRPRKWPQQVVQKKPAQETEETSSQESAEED
From the text: The PDI-ELSA assays were described previously[33] and used to determine the inhibition IC50 against HMGA2-DNA interactions. The apparent inhibitory IC50 values were obtained using the following equation: y=min+(max-min/1+10^((x-logIC50)×Hillslope) , where x, y, max, and min represent the inhibitor’s concentration, the inhibition level, the maximum inhibition value, and the minimum inhibition value, respectively.

[3] = target: “AT-hook” peptide 3 (ATHP3) (Homo sapiens, UniProt P52926); experiment: Isothermal titration calorimetry (ITC), titration into ATHP3; format: binding
Protocol: ITC experiments were conducted using a VP-ITC titration calorimeter (MicroCal, Inc., Northampton, MA) interfaced to a PC. Origin 7.0, supplied by the manufacturer was used for data acquisition. […] The heat liberated or absorbed is observed as a peak corresponding to the power required keeping the sample and reference cells at identical temperatures. The peak produced during the injection is converted to heat output by integration and corrected for cell volume and sample concentration. […] The net enthalpy for the titration reaction was determined by subtraction of the component heats of dilution.

[4] = no reference given; cited from earlier work

IC50 (HMGA2-DNA interactions): 2780 ± 100 nM
− TΔS [3]: 6.75 kcal/mol
Kd ([3]; first line, read-out: ATHP3 Ka (M^−1) (converted)): 24.6 nM
ATHP3 Binding site ([3]; number of sites, first line): 0.98
SMILES: Cc1ccc(C(=O)Nc2ccc(S(=O)(=O)O)c3cc(S(=O)(=O)O)cc(S(=O)(=O)O)c23)cc1NC(=O)c1cccc(NC(=O)Nc2cccc(C(=O)Nc3cc(C(=O)Nc4ccc(S(=O)(=O)O)c5cc(S(=O)(=O)O)cc(S(=O)(=O)O)c45)ccc3C)c2)c1 [suramin]
cell growth (BTSC#30p): did not significantly affect the cell growth
inhibition of H4 peptide binding to BRD4 [1]: did not inhibit H4 peptide binding to BRD4
cytotoxicity [2]: not cytotoxic
oral bioavailability [4]: not orally bioavailable

Source: article PMC7606612, “Identification of HMGA2 inhibitors by AlphaScreen-based ultra-high-throughput screening assays” (Scientific Reports, 2020)
